For nine compounds, IC50 results are on record in ChEMBL document CHEMBL1138196, “Antitrypanosomal activity of 5'-deoxy-5'-(iodomethylene)adenosine and related 6-N-cyclopropyladenosine analogues” (J Med Chem, 2006).

In brackets after ≈: the same amount, converted by molar mass.

The first experiment relates to Trypanosoma brucei. Put plainly: Antitrypanosomal activity against Trypanosoma brucei. The experiment is classed as functional, organism-based.
Take `Nc1ncnc2c1ncn2[C@@H]1O[C@H](CSCCO)[C@@H](O)[C@H]1O`: the midpoint of inhibition, the IC50, lay at 0.16 µg/mL (≈ 0.489 µM).
The compound `Nc1ncnc2c1ncn2[C@@H]1O[C@H](/C=C\I)[C@@H](O)[C@H]1O` returned an IC50 of 45 µg/mL (≈ 116 µM).
Compound `CC(=O)OCCSC[C@H]1O[C@@H](n2cnc3c(N)ncnc32)[C@H](OC(C)=O)[C@@H]1OC(C)=O` had an IC50 of 0.12 µg/mL (≈ 0.265 µM).
On the same count and under the same terms, the value for `Nc1ncnc2c1ncn2[C@@H]1O[C@](S)(CO)[C@@H](O)[C@H]1O` was 14 µg/mL (≈ 46.8 µM); that for `O[C@@H]1[C@H](O)[C@@H](/C=C/F)O[C@H]1n1cnc2c(NC3CC3)ncnc21` was 19 µg/mL (≈ 59.1 µM); that for `O[C@@H]1[C@H](O)[C@@H](/C=C/I)O[C@H]1n1cnc2c(NC3CC3)ncnc21` was 12 µg/mL (≈ 28 µM).
As for `Nc1ncnc2c1ncn2[C@@H]1O[C@H](/C=C/I)[C@@H](O)[C@H]1O`, inhibition was half-maximal at 9 µg/mL (≈ 23.1 µM) (IC50).
In turn, `CN(C/C=C\CN)C[C@H]1O[C@@H](n2cnc3c(N)ncnc32)[C@H](O)[C@@H]1O` displayed a 50% inhibitory concentration (IC50) of 0.02 µg/mL (≈ 0.0572 µM).
As for `N#C/N=C/[C@H]1O[C@@H](n2cnc3c(NC4CC4)ncnc32)[C@H](O)[C@@H]1O`, the 50% inhibitory concentration (IC50) worked out at 19 µg/mL (≈ 57.7 µM).

Another experiment relates to Vesicular stomatitis virus. Put plainly: Antiviral activity against VSV in BHK cells. The experiment is classed as functional, organism-based.
`Nc1ncnc2c1ncn2[C@@H]1O[C@H](/C=C/I)[C@@H](O)[C@H]1O` showed a 50% inhibitory concentration (IC50) of 2 µg/mL (≈ 5.14 µM).
